ChEMBL document CHEMBL1201862, “PubChem BioAssay data set” (2004)
The source made the active and inactive calls.

Target: Cytochrome P450 2C19 (Homo sapiens, UniProt P33261)
Test: Cytochrome panel assay with activity outcomes. Panel member name: p450-cyp2c19 Compounds with AC50 equal or less than 10 uM are considered active
Assay type: functional
Conditions: not given

Chain of Cytochrome P450 2C19 (P33261 whole entry): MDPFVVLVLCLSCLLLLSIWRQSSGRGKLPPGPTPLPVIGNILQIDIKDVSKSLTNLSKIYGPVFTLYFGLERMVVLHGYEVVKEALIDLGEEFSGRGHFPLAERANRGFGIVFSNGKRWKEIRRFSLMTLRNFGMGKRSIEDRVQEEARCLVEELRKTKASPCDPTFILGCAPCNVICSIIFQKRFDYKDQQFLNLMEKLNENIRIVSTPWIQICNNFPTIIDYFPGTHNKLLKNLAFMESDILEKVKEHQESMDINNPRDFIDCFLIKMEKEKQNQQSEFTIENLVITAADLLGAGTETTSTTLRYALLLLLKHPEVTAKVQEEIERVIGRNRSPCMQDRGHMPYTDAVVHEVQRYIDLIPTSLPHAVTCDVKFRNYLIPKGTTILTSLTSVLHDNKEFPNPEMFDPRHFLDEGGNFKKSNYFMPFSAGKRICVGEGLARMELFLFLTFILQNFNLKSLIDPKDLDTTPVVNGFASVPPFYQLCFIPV

Which AC50 does the source give for CC(=O)Nc1ccc2[nH]c(C3CCCCC3)nc2c1 here?
Its AC50 is “inconclusive”.

For Cc1ccc(C(=O)NCC2CCCO2)cc1N1CCCC1=O (stereo not given), which AC50 is on record?
Its AC50 is “inconclusive”.

Same assay, conditions: read-out: AC50

For COc1ccc(-n2c(=O)c(C)nc3cnc(Oc4cccc(Cl)c4)nc32)cc1, which AC50 is on record?
Its AC50 is 39.8 µM (inconclusive).

Target: Cytochrome P450 3A4 (Homo sapiens, UniProt P08684);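 also: CYP3A4 tested as one member of a cytochrome P450 panel screen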
Test: not given
Conditions: not given

Chain of Cytochrome P450 3A4 (P08684 whole entry): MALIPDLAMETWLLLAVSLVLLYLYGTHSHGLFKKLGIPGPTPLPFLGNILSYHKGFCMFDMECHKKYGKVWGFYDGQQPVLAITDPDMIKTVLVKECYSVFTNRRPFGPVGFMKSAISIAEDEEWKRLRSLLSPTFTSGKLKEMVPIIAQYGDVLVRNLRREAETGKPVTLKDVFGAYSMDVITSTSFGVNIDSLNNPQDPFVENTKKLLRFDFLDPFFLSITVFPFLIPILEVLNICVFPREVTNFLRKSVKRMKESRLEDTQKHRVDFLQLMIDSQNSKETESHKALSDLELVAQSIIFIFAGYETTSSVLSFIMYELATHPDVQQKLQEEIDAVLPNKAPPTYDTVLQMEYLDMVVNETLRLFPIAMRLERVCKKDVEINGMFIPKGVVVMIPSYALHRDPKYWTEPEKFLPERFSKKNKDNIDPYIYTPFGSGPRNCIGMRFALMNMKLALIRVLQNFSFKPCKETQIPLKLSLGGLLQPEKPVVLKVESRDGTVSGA

Which AC50 does the source give for Cc1nc(SCC(=O)NCCc2ccccc2)c2oc3ccccc3c2n1 here?
The AC50 was 39.8 µM (inconclusive).

Which AC50 does the source give for COc1ccc(-n2c(=O)c(C)nc3cnc(Oc4cccc(Cl)c4)nc32)cc1 here?
Its AC50 is 3.16 µM (inconclusive).

Tested on: not listed separately
Test: P. falciparum Dd2 growth inhibitors, dose response, SYBR Green, cherry-picked samples (AID 1159567)
Assay type: functional, cell-based
Conditions: not given

With CC(C)(C)[S@@+]([O-])N1Cc2cc(C(=O)N[C@@H]3CCN(Cc4ccccc4)C3)nc(-c3cccc(-c4ccncc4)c3)c2[C@H]1CCO as the compound, how does the AC50 read?
The AC50 was 6.63 µM (active).

With COCC(=O)Nc1ccc2c(c1)C(=O)N(C)C[C@H](OC)[C@H](C)CN(Cc1cccc(F)c1)[C@@H](C)CO2 as the compound, how does the AC50 read?
The AC50 was 5.34 µM (active).

Which AC50 does the source give for O=C(C1CCCC1)N1CC(=O)N2[C@H](C1)[C@@H](c1ccc(C#CCc3ccccc3)cc1)[C@@H]2CO here?
Its AC50 is 4.51 µM (active).

Target: T1, Cytochrome P450 1A2 (Homo sapiens, UniProt P05177);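 also: PubChem cytochrome P450 panel assay, CYP1A2 panel member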
T1 sequence (P05177 whole entry): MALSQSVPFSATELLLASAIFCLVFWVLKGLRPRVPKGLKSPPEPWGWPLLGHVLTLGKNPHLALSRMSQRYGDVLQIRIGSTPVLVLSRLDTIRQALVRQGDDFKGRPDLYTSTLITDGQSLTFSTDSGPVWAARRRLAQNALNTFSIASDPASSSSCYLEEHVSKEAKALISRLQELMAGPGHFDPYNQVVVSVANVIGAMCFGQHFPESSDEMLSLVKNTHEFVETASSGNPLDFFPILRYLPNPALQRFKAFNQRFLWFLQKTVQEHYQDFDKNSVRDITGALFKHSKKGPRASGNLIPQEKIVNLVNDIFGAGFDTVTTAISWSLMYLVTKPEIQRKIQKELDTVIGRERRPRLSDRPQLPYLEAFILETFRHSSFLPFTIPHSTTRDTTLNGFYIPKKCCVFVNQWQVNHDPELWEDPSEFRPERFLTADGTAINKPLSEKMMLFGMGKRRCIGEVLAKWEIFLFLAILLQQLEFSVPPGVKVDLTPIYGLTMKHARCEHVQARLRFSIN
Test: not given
Conditions: not given

For Cc1cc(C=C(C#N)C#N)c(C)n1-c1ccccc1, which AC50 is on record?
The AC50 was 2.24 µM (inconclusive).

Which AC50 does the source give for Cc1nc(SCC(=O)NCCc2ccccc2)c2oc3ccccc3c2n1 here?
The AC50 was 0.562 µM (inconclusive).

Tested on: not listed separately
Test: NIH3T3 cell viability loss – ATP luminescence, mouse fibroblasts, counter-screen, dose response (AID 2010);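 also: cells exposed to compound for about 90 hours before reading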
Assay type: functional, cell-based
Conditions: not given

Which EC50 does the source give for O=C(Nc1ccccc1)c1sccc1Oc1ccc([N+](=O)[O-])cc1F here?
Its EC50 is > 60 µM (not active).

For CCN1CCN(CCOc2cccc(Cl)c2Cl)CC1, which EC50 is on record?
The EC50 was > 60 µM (not active).

With Cc1cc(OCCCN2CCN(Cc3ccccc3)CC2)ccc1[N+](=O)[O-] as the compound, how does the EC50 read?
Its EC50 is > 60 µM (inconclusive).

Target: T2, Rac GTPase-activating protein 1 (Homo sapiens, UniProt Q9H0H5)
T2 sequence (Q9H0H5 whole entry): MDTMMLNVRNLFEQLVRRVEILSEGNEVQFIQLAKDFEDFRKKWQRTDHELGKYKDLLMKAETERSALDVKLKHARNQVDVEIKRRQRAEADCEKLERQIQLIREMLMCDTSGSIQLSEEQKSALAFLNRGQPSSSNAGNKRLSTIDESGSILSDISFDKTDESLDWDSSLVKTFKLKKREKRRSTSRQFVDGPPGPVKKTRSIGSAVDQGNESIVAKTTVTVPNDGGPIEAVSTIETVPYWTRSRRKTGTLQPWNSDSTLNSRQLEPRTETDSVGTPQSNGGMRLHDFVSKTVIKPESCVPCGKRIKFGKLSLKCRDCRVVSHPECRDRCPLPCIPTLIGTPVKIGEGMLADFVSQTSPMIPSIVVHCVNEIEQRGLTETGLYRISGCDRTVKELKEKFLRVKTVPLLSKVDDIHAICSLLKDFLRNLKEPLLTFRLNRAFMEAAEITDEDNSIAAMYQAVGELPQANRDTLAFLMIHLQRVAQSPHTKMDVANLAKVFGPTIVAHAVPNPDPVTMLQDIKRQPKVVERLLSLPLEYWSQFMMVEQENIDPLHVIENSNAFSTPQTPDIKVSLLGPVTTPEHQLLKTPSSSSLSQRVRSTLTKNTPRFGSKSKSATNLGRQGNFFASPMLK
Test: blockers of MgcRacGAP-driven Rac1 GTP hydrolysis – biochemical, ADP Hunter fluorescence, primary and confirmatory, confirmation (AID 624330)
Assay type: functional
Conditions: not given

With COc1ccc(S(=O)(=O)N2CCC(N3CCN(c4ccccc4OC)CC3)CC2)cc1 as the compound, how does the IC50 read?
Its IC50 is 121 µM (active).

For CCN1CCN(CCOc2cccc(Cl)c2Cl)CC1, which IC50 is on record?
Its IC50 is 70.4 µM (active).

For CCn1c(=O)n(CC)c2cc(N3CCCC3)c(NC(=O)c3ccccc3)cc21, which IC50 is on record?
Its IC50 is 91 µM (active).

Which IC50 does the source give for CCc1cc(-c2[nH]nc(CCC(=O)O)c2-c2nc3ccccc3n2C)c(O)cc1O here?
The IC50 was 122 µM (active).

With Cc1cc(OCCCN2CCN(Cc3ccccc3)CC2)ccc1[N+](=O)[O-] as the compound, how does the IC50 read?
The IC50 was 62 µM (active).

Which IC50 does the source give for COc1cccc(CN2CCN(Cc3cc(OC)c(OC)c(OC)c3)CC2)c1OC here?
The IC50 was 74.8 µM (active).

With c1cc(CN2CCN(C3CCCCCC3)CC2)ccn1 as the compound, how does the IC50 read?
Its IC50 is 92 µM (active).

For O=C(O)Cn1cc(/C=C2\C(=O)NC(=O)N(c3ccc(Cl)cc3)C2=O)c2ccccc21, which IC50 is on record?
The IC50 was 255 µM (active).

Target: T3, Corticotropin-releasing factor receptor 2/Corticotropin-releasing factor-binding protein (Homo sapiens, UniProt P24387+Q13324)
T3 sequence (Q13324 whole entry): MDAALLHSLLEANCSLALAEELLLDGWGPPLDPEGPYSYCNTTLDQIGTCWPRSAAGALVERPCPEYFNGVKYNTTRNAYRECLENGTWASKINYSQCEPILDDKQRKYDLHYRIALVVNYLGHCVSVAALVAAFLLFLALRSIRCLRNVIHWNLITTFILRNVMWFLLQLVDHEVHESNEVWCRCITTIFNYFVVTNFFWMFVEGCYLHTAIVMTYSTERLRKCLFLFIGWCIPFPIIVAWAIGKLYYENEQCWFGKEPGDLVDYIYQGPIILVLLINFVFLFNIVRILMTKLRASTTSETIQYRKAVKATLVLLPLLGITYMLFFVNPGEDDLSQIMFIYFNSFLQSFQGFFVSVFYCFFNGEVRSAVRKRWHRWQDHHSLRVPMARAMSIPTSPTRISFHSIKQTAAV
T3 sequence (P24387 whole entry): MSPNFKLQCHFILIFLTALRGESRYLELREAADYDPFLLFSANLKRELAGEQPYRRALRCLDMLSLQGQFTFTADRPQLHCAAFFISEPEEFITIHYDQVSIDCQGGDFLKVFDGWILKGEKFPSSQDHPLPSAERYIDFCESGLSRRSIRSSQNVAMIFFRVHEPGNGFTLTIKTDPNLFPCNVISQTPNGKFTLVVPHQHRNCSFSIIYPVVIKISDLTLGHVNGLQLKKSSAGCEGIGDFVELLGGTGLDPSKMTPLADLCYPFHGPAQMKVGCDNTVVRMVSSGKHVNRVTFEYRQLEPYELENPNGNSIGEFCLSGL
Test: Dose Response confirmation of uHTS hits for small molecule antagonists of the CRF-binding protein and CRF-R2 receptor complex.
Assay type: functional
Conditions: read-out: IC50_Mean

Which IC50 does the source give for O=C(C(c1ccccc1)c1ccccc1)N1CCN(CCN2C(=O)c3cccc4cccc(c34)C2=O)CC1 here?
The IC50 was > 47.1 µM (inactive).

For O=C(Nc1ccccc1)c1sccc1Oc1ccc([N+](=O)[O-])cc1F, which IC50 is on record?
Its IC50 is > 47.1 µM (inactive).

For CCC(C)C1N=C(c2ccccc2)c2cc(Cl)ccc2N(CC(=O)NCc2ccco2)C1=O (stereo not given), which IC50 is on record?
The IC50 was > 47.1 µM (inactive).

For CCOc1nc(C)ccc1-c1noc(-c2ccccn2)n1, which IC50 is on record?
The IC50 was > 47.1 µM (inactive).

For CCCN1Cc2cccc(C(=O)NCc3cccs3)c2C1=O, which IC50 is on record?
Its IC50 is > 47.1 µM (inactive).

Target: Cytochrome P450 2D6 (Homo sapiens, UniProt P10635);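 also: CYP2D6 member of a cytochrome P450 panel assay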
Test: not given
Conditions: not given

Chain of Cytochrome P450 2D6 (P10635 whole entry): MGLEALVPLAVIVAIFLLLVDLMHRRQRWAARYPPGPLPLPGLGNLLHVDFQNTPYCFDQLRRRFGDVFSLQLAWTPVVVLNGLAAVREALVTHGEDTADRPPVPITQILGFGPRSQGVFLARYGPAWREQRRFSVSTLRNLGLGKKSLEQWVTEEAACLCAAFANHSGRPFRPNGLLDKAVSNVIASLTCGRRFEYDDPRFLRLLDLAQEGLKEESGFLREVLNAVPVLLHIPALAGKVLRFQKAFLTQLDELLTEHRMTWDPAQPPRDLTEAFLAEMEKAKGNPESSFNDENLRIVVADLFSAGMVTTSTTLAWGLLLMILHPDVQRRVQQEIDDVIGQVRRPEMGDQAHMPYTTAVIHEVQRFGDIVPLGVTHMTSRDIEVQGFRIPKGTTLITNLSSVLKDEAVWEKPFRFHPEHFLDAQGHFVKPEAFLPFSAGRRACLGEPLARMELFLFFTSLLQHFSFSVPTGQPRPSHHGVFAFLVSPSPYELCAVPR

For COc1ccc(-n2c(=O)c(C)nc3cnc(Oc4cccc(Cl)c4)nc32)cc1, which AC50 is on record?
Its AC50 is 25.1 µM (inconclusive).

Target: T3, Corticotropin-releasing factor receptor 2/Corticotropin-releasing factor-binding protein
Test: activators of CRF receptor 2 with binding protein – uHTS hits, confirmation (AID 602473)
Assay type: functional
Conditions: read-out: EC50_Mean

For O=C(C(c1ccccc1)c1ccccc1)N1CCN(CCN2C(=O)c3cccc4cccc(c34)C2=O)CC1, which EC50 is on record?
Its EC50 is > 53 µM (inactive).

For O=C(Nc1ccccc1)c1sccc1Oc1ccc([N+](=O)[O-])cc1F, which EC50 is on record?
The EC50 was > 53 µM (inactive).

Which EC50 does the source give for CCC(C)C1N=C(c2ccccc2)c2cc(Cl)ccc2N(CC(=O)NCc2ccco2)C1=O (stereo not given) here?
Its EC50 is > 53 µM (inactive).

With CCOc1nc(C)ccc1-c1noc(-c2ccccn2)n1 as the compound, how does the EC50 read?
Its EC50 is > 53 µM (inactive).

Which EC50 does the source give for CCCN1Cc2cccc(C(=O)NCc3cccs3)c2C1=O here?
Its EC50 is > 53 µM (inactive).

Tested on: not listed separately
Test: Trypanosoma cruzi growth suppression in host cells – NIH3T3 host cells, beta-gal luminescence, confirmation (AID 2044);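 also: intracellular parasites grown in NIH/3T3 mouse fibroblasts as host cells; luminescent beta-galactosidase reporter signal from transgenic T. cruzi replicating inside host cells; inhibitors lower the luminescence signal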
Assay type: functional, cell-based
Conditions: not given

For O=C(Nc1ccccc1)c1sccc1Oc1ccc([N+](=O)[O-])cc1F, which EC50 is on record?
Its EC50 is 1.42 µM (active).

For CCN1CCN(CCOc2cccc(Cl)c2Cl)CC1, which EC50 is on record?
The EC50 was 0.151 µM (active).

Which EC50 does the source give for Cc1cc(OCCCN2CCN(Cc3ccccc3)CC2)ccc1[N+](=O)[O-] here?
The EC50 was 0.156 µM (active).

Target: Cytochrome P450 2C9 (Homo sapiens, UniProt P11712)
Test: not given
Conditions: not given

Chain of Cytochrome P450 2C9 (P11712 whole entry): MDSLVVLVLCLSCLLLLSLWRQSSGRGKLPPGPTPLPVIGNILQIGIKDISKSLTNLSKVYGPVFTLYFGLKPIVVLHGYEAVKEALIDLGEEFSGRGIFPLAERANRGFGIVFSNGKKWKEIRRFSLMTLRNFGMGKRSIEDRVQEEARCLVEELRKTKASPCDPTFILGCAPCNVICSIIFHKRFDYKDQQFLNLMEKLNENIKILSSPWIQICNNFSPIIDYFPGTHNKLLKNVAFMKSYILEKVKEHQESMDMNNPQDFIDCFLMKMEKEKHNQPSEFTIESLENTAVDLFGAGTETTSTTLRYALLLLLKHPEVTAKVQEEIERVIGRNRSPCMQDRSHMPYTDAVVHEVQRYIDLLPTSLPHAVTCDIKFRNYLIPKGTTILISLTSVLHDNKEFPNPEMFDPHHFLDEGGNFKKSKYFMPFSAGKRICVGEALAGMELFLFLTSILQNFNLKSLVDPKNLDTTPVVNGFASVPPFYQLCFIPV

Which AC50 does the source give for Cc1cc(C=C(C#N)C#N)c(C)n1-c1ccccc1 here?
Its AC50 is 1.12 µM (inconclusive).

With CC(=O)Nc1ccc2[nH]c(C3CCCCC3)nc2c1 as the compound, how does the AC50 read?
Its AC50 is 17.8 µM (inconclusive).

Which AC50 does the source give for Cc1ccc(C(=O)NCC2CCCO2)cc1N1CCCC1=O (stereo not given) here?
The AC50 was 2.82 µM (inconclusive).

Which AC50 does the source give for Cc1nc(SCC(=O)NCCc2ccccc2)c2oc3ccccc3c2n1 here?
Its AC50 is 0.398 µM (inconclusive).

For COc1ccc(-n2c(=O)c(C)nc3cnc(Oc4cccc(Cl)c4)nc32)cc1, which AC50 is on record?
Its AC50 is 25.1 µM (inconclusive).
